Laboratory results as given in patent US20190071490A1, “Preventing Post-Ictal Headaches” (Beth Israel Deaconess Medical Center, Inc., priority 2017, published 2019).

Test system: skin blood flow after saphenous nerve stimulation (CGRP release)
Assay: Skin vasodilatation induced by stimulation of rat saphenous nerve
Format: in vivo
Settings: 400 nmol/kg i.v., 3-5 minutes before stimulation, vs control
Protocol: To test antagonist activity of anti-CGRP antibodies, effect of the antibodies on skin vasodilatation by stimulation of rat saphenous nerve was tested using a rat model described previously. Escott et al., Br. J. Pharmacol. 110:772-776, 1993. In this rat model, electrical stimulation of saphenous nerve induces release of CGRP from nerve endings, resulting in an increase in skin blood flow. Blood flow in the foot skin of male Sprague Dawley rats (170-300 g, from Charles River Hollister) was measured after saphenous nerve stimulation. Rats were maintained under anesthesia with 2% isoflurane. Bretylium tosylate (30 mg/kg, administered i.v.) was given at the beginning of the experiment to minimize vasoconstriction due to the concomitant stimulation of sympathetic fibers of the saphenous nerve. […]
For experiments shown in FIGS. 2A and 2B, antibody 4901 (25 mg/kg), antibody 7D11 (25 mg/kg), or vehicle control (PBS with 0.01% Tween 20) was administered intraperitoneally (IP) 72 hours before the electrical pulse stimulation. […] Skin blood flow, measured as blood cell flux, was monitored with a laser Doppler flow meter. […]
For experiments shown in FIGS. 4A and 4B, saphenous nerve was exposed surgically before antibody administration. […] Skin blood flow, measured as blood cell flux, was monitored with a laser Doppler flow meter. […]

CGRP 8-37: Positive control compound CGRP 8-37 (vasodilatation antagonist)
blood flow increase stimulated by electronic pulses on saphenous nerve (AUC of blood cell flux): inhibited
